ChEMBL document CHEMBL1201862, “PubChem BioAssay data set” (2004)
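Assay format: 96-well plates, 48-hour exposure. Here, GI50 denotes the concentration required for 50% inhibition of growth.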 The source made the active and inactive calls. Rule as the data show it: active = GI50 up to about 1.1 µM and inactive = higher.

What was measured:
Assay in all cases: NCI tumour cell line growth inhibition, 48 h
HCT-15 = tested on: HCT-15
MDA-MB-435 = tested on: MDA-MB-435
M14 = tested on: M14
LOX IMVI = tested on: LOX IMVI
Malme-3M = tested on: Malme-3M
ACHN = tested on: ACHN
786-0 = tested on: 786-0
UO-31 = tested on: UO-31
OVCAR-5 = tested on: OVCAR-5
SF-295 = tested on: SF-295
NCI-H522 = tested on: NCI-H522
U-251 = tested on: U-251
SR = tested on: SR
HOP-62 = tested on: HOP-62
UACC-257 = tested on: UACC-257
NCI-H460 = tested on: NCI-H460
RXF 393 = tested on: RXF 393
BT-549 = tested on: BT-549
SNB-19 = tested on: SNB-19
NCI/ADR-RES = tested on: NCI/ADR-RES
OVCAR-3 = tested on: OVCAR-3
SK-OV-3 = tested on: SK-OV-3
NCI-H23 = tested on: NCI-H23
SN12C = tested on: SN12C
SF-539 = tested on: SF-539
HOP-92 = tested on: HOP-92
MOLT-4 = tested on: MOLT-4
HL-60 = tested on: HL-60
A549 = tested on: A549
PC-3 = tested on: PC-3
RPMI-8226 = tested on: RPMI-8226
CCRF-CEM = tested on: CCRF-CEM
EKVX = tested on: EKVX
KM12 = tested on: KM12
SF-268 = tested on: SF-268
SW-620 = tested on: SW-620
DU-145 = tested on: DU-145
UACC-62 = tested on: UACC-62
A498 = tested on: A498
HCT-116 = tested on: HCT-116
COLO 205 = tested on: COLO 205
HT-29 = tested on: HT-29
SK-MEL-28 = tested on: SK-MEL-28
Hs-578T = tested on: Hs-578T
NCI-H226 = tested on: NCI-H226
MDA-N = tested on: MDA-N
CAKI-1 = tested on: CAKI-1
K562 = tested on: K562
MDA-MB-231 = tested on: MDA-MB-231
HCC 2998 = tested on: HCC 2998
OVCAR-8 = tested on: OVCAR-8
IGROV-1 = tested on: IGROV-1
TK-10 = tested on: TK-10

`Cc1cn(C2CC(/[N+]([O-])=N\Nc3ccc([N+](=O)[O-])cc3)C(CO)O2)c(=O)[nH]c1=O` (stereo not drawn) was tested. Which GI50 (HCT-15) did it give?
Its GI50 is > 100 µM.

And the GI50 (MDA-MB-435)?
The GI50 was > 100 µM (inactive).

What about the GI50 (M14) of the same compound?
The GI50 was > 100 µM (inactive).

And the GI50 (LOX IMVI)?
Its GI50 is > 100 µM (inactive).

And the GI50 (Malme-3M)?
The GI50 was > 100 µM (inactive).

What about the GI50 (ACHN) of the same compound?
Its GI50 is > 100 µM (inactive).

What about the GI50 (786-0) of the same compound?
The GI50 was > 100 µM (inactive).

And the GI50 (UO-31)?
The GI50 was > 100 µM (inactive).

What about the GI50 (OVCAR-5) of the same compound?
Its GI50 is > 100 µM (inactive).

And the GI50 (SF-295)?
The GI50 was > 100 µM (inactive).

And the GI50 (NCI-H522)?
Its GI50 is > 100 µM (inactive).

And the GI50 (U-251)?
The GI50 was > 100 µM (inactive).

What about the GI50 (SR) of the same compound?
The GI50 was 4.62 µM (inactive).

And the GI50 (HOP-62)?
Its GI50 is > 100 µM (inactive).

And the GI50 (UACC-257)?
Its GI50 is > 100 µM (inactive).

And the GI50 (NCI-H460)?
Its GI50 is 94.2 µM (inactive).

What about the GI50 (RXF 393) of the same compound?
The GI50 was > 100 µM (inactive).

What about the GI50 (BT-549) of the same compound?
The GI50 was > 100 µM (inactive).

What about the GI50 (SNB-19) of the same compound?
Its GI50 is > 100 µM (inactive).

What about the GI50 (NCI/ADR-RES) of the same compound?
The GI50 was > 100 µM (inactive).

And the GI50 (OVCAR-3)?
Its GI50 is > 100 µM (inactive).

And the GI50 (SK-OV-3)?
The GI50 was > 100 µM (inactive).

And the GI50 (NCI-H23)?
The GI50 was > 100 µM (inactive).

And the GI50 (SN12C)?
Its GI50 is > 100 µM (inactive).

And the GI50 (SF-539)?
The GI50 was > 100 µM (inactive).

What about the GI50 (HOP-92) of the same compound?
Its GI50 is > 100 µM (inactive).

What about the GI50 (MOLT-4) of the same compound?
Its GI50 is 22.2 µM (inactive).

What about the GI50 (HL-60) of the same compound?
Its GI50 is > 100 µM (inactive).

What about the GI50 (A549) of the same compound?
The GI50 was > 100 µM (inactive).

What about the GI50 (PC-3) of the same compound?
The GI50 was > 100 µM (inactive).

And the GI50 (RPMI-8226)?
The GI50 was 42.8 µM (inactive).

What about the GI50 (CCRF-CEM) of the same compound?
The GI50 was > 100 µM (inactive).

What about the GI50 (EKVX) of the same compound?
Its GI50 is > 100 µM (inactive).

What about the GI50 (KM12) of the same compound?
The GI50 was > 100 µM (inactive).

And the GI50 (SF-268)?
Its GI50 is > 100 µM (inactive).

And the GI50 (SW-620)?
Its GI50 is > 100 µM (inactive).

What about the GI50 (DU-145) of the same compound?
Its GI50 is > 100 µM (inactive).

What about the GI50 (UACC-62) of the same compound?
Its GI50 is > 100 µM (inactive).

What about the GI50 (A498) of the same compound?
Its GI50 is > 100 µM (inactive).

And the GI50 (HCT-116)?
Its GI50 is > 100 µM (inactive).

What about the GI50 (COLO 205) of the same compound?
Its GI50 is > 100 µM (inactive).

And the GI50 (HT-29)?
The GI50 was > 100 µM (inactive).

What about the GI50 (SK-MEL-28) of the same compound?
Its GI50 is > 100 µM (inactive).

What about the GI50 (Hs-578T) of the same compound?
The GI50 was > 100 µM (inactive).

And the GI50 (NCI-H226)?
The GI50 was > 100 µM (inactive).

And the GI50 (MDA-N)?
Its GI50 is > 100 µM (inactive).

What about the GI50 (CAKI-1) of the same compound?
The GI50 was > 100 µM (inactive).

What about the GI50 (K562) of the same compound?
Its GI50 is > 100 µM (inactive).

What about the GI50 (MDA-MB-231) of the same compound?
Its GI50 is 73.3 µM (inactive).

And the GI50 (HCC 2998)?
Its GI50 is 40.7 µM (inactive).

And the GI50 (OVCAR-8)?
The GI50 was > 100 µM (inactive).

And the GI50 (IGROV-1)?
Its GI50 is 22.5 µM (inactive).

And the GI50 (TK-10)?
The GI50 was > 100 µM (inactive).
